Results reported in article PMC11284788, “NN1213 – A Potent, Long-Acting, and Selective Analog of Human Amylin” (Journal of Medicinal Chemistry, 2024).
Converted amounts (≈) assume the structure as drawn. Read-outs that look alike come from different tables or passages of the source. Values belong to the compound of their own block, whether it stands above or below them. Numbered stars: 1 amine (or outer) side, 2 acyl side, 3 side chain; on linkers, the order of the positions; unused ones are H or OH. Bridge positions count the residues as written; N and C are the ends. Side chains are listed from the residue outwards. Peptide text beside a SMILES is read from it. * marks the point of attachment. C20 diacid = O=C(O)CCCCCCCCCCCCCCCCCCC(=O)*; γGlu = O=C(O)[C@H](CCC(=O)[*:2])N[*:1]

Legend:
[1] = Solubility versus pH profile
[2] = ThT assay: fibril formation propensity and peptide recovery; assay type: physicochemical; conditions: for recovery: residual dissolved peptide after 45 h of shaking, centrifugation and 0.22 μm filtration, HPLC, relative to amount before stress
Experimental: The stability properties of the individual amylin analogs were assessed with respect to their propensity toward fibril formation, expressed as the time until fibril formation (measured as Lag time) and loss of dissolved peptide (assessed as Peptide Recovery). […] Samples were prepared as described previously (using the same methodology and materials) for a novel amylin-based analog candidate compound.[7]
Briefly, each compound was dissolved in 10 mM of glycylglycine buffer (pH 4.0) or HEPES buffer (pH 7.5) to a concentration of 250 μM, followed by ThT stock solution to a final concentration of 1 μM. Each solution was aliquoted into a microtiter plate (200 μL/well) sealed with a transparent adhesive sheet. Mechanical stress was applied at 37 °C incubation (960 rpm, 1 mm amplitude) with 20 min fluorescence reading intervals for 45 h (filters: excitation 444 nm; emission 485 nm). Each peptide was tested in experiments consisting of four replicas (e.g., four wells on the same plate), and the lag time of each replica was determined by visual inspection of the fluorescence-versus-time plot. For wells where no fibril formation could be detected, the lag time was set longer than the test period (>45 h). The lag time of the peptide was set to the lowest lag time of the four replicates (conservative estimate). Some of the peptides were tested in more than one experiment, and the lag time results given in Tables 6 and 9 represent the average of these experiments. The ThT time course data given in Supporting Information represent the average and SEM of each experiment.[40] After analysis, wells representing individual replicas were pooled, and the residual soluble peptide was isolated using centrifugation (20,000 g/30 min at room temperature) followed by […] filtration. The amount of residual dissolved peptide was determined using an HPLC with a flow rate of 2 mL/min at 30 °C and 215/276 nm detection. A gradient combining eluent A (7.7% w/w acetonitrile, 200 mM Na2SO4, 20 mM NaH2PO4, 20 mM Na2HPO4, pH 7.2) and eluent B (65.5% w/w acetonitrile) was applied. The amount of residual dissolved peptide was reported on a relative scale (Peptide Recovery) to the amount of dissolved peptide prior to mechanical stress.

[3] = HMWP content by size-exclusion chromatography; assay type: physicochemical; conditions: covalent dimers and polymers prior to fibril formation testing, SEC, % of total absorbance area at 215 nm
Experimental: The stability properties of the individual amylin analogs were assessed with respect to their propensity toward amyloid fibril formation. The relative amount of covalent dimers and polymers (HMWP) present prior to fibril formation testing was measured as a control for the potential inhibitory effect of HMWP on fibril formation propensity as reported elsewhere.[39]
Elution was performed under isocratic conditions with the following mobile phase prepared in Milli-Q water (Millipore A/S): 0.5 M NaCl, 10 mM sodium dihydrogen monohydrate, 5 mM ortho-phosphoric acid, 50% (v/v) 2-propanol. The amount of HMWP was determined as the absorbance area of the corresponding peaks given in percentage of the total absorbance area. The molar extinction coefficients of the molecules eluting in the HMWP fraction and the main peak was assumed to be equal.

[4] = system: rats; assay: Acute food intake in rats; assay type: in vivo, rat; conditions: single sc injection of 30 nmol/kg, relative to vehicle, mean ± SEM, n = 5–7 per group
[5] = target: T1, hAMY3R (Homo sapiens, UniProt O60896+P30988); assay: cAMP-responsive element luciferase reporter assay, human AMY3R; assay type: cell-based; design: expressed in transfected cells; conditions: for EC50: luciferase (human receptor assay)
T1 sequence (P30988 25-474): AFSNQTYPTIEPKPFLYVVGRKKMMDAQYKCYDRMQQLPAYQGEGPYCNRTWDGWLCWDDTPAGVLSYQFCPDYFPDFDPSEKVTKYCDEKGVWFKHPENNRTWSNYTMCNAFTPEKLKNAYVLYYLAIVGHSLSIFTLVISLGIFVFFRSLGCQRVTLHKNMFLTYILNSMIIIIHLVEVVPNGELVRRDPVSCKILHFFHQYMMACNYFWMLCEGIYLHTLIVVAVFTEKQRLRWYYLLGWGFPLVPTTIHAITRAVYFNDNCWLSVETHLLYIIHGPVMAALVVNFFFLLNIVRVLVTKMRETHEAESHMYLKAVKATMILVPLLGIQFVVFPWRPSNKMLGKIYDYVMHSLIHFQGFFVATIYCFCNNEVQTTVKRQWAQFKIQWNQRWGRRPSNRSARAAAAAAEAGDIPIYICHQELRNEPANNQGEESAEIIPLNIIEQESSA
T1 sequence (O60896 24-148 partner): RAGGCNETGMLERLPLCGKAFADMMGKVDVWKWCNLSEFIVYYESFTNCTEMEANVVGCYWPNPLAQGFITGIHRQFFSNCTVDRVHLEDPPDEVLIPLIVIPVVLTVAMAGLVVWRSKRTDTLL

[6] = target: T2, hCTR (Homo sapiens, UniProt P30988); assay: cAMP-responsive element luciferase reporter assay, human CTR; assay type: cell-based; conditions: luciferase (human receptor assay)
T2 sequence (P30988 25-474): T1 sequence (P30988 25-474)

solubility kinetic ([1]; pH 4, aqueous buffer): ≥ 200 µM | solubility kinetic ([1]; pH 5, aqueous buffer): ≥ 200 µM | solubility kinetic ([1]; pH 6, aqueous buffer): ≥ 200 µM | solubility kinetic ([1]; pH 6.5, aqueous buffer): ≥ 200 µM | solubility kinetic ([1]; pH 7, aqueous buffer): ≥ 200 µM | solubility kinetic ([1]; pH 7.5, aqueous buffer): ≥ 200 µM | solubility kinetic ([1]; pH 8, aqueous buffer): ≥ 200 µM | ThT, pH 4.0 lag-time ([2]; 250 μM peptide, 10 mM glycylglycine pH 4.0, 1 μM ThT, 37 °C, 960 rpm, 45 h, lowest of four replicas, average of experiments): 27 h | recovery ([2]; pH 4.0): 67% | HMWP ([3]; analogs 10–21 (pH 4.0 series)): 0.7%
Structure (SMILES): CC[C@H](C)[C@H](NC(=O)[C@H](C)NC(=O)CNC(=O)[C@H](Cc1ccccc1)NC(=O)[C@H](CC(N)=O)NC(=O)[C@@H]1CCCN1C(=O)[C@H](CO)NC(=O)[C@H](CO)NC(=O)[C@H](Cc1c[nH]cn1)NC(=O)[C@H](CCCNC(=N)N)NC(=O)[C@H](CC(C)C)NC(=O)[C@H](Cc1ccccc1)NC(=O)[C@H](CC(N)=O)NC(=O)[C@H](C)NC(=O)[C@H](CC(C)C)NC(=O)[C@H](CCCNC(=N)N)NC(=O)[C@H](CCC(N)=O)NC(=O)[C@@H](NC(=O)[C@H](C)NC(=O)[C@@H]1CSSC[C@H](NC(=O)[C@H](CCCCN)NC(=O)COCCOCCNC(=O)CC[C@H](NC(=O)CCCCCCCCCCCCCCCCCCC(=O)O)C(=O)O)C(=O)N[C@@H](CC(N)=O)C(=O)N[C@@H]([C@@H](C)O)C(=O)N[C@@H](C)C(=O)N[C@@H]([C@@H](C)O)C(=O)N1)[C@@H](C)O)C(=O)N1CCC[C@H]1C(=O)N[C@@H](CO)C(=O)N[C@@H](CO)C(=O)N[C@H](C(=O)N[C@@H](CC(N)=O)C(=O)N[C@H](C(=O)NCC(=O)N[C@@H](CO)C(=O)N[C@@H](CCCNC(=N)N)C(=O)N[C@H](C(=O)N[C@@H](Cc1ccc(O)cc1)C(N)=O)[C@@H](C)O)C(C)C)[C@@H](C)O [Peptide 15]
Acute food intake reduction 24–48 h [4]: 0 ± 5%

solubility kinetic ([1]; bis-tris-propane buffer, pH 6, aqueous buffer): 173 µM (≈ 788 µg/mL) | solubility kinetic ([1]; bis-tris-propane buffer, pH 6.5, aqueous buffer): ≥ 200 µM | solubility kinetic ([1]; bis-tris-propane buffer, pH 7, aqueous buffer): ≥ 200 µM | solubility kinetic ([1]; bis-tris-propane buffer, pH 7.5, aqueous buffer): ≥ 200 µM | solubility kinetic ([1]; bis-tris-propane buffer, pH 8, aqueous buffer): ≥ 200 µM | solubility kinetic ([1]; lactate buffer, pH 4, aqueous buffer): ≥ 200 µM | solubility kinetic ([1]; lactate buffer, pH 5, aqueous buffer): 38 µM (≈ 173 µg/mL) | ThT, pH 7.5 lag-time ([2]; 250 μM peptide, 10 mM HEPES pH 7.5, 1 μM ThT, 37 °C, 960 rpm, 45 h, lowest of four replicas, average of experiments): 4 h | recovery ([2]; pH 7.5): 21% | HMWP ([3]; analogs 1–9 (pH 7.5 series)): 5% | EC50 ([5]; Tables S12 and S14, read-out: hAMY3R pEC50 (converted)): 269 pM | EC50 ([5]; BHK cells stably expressing hCTR+RAMP3 and CRE-luciferase, 3 h, 37 °C, 10% FBS, read-out: hAMY3R EC50): 267 pM | ratio hCTR/hAMY3R ([5]; ratio of luciferase EC50 values): 2.5 | EC50 ([6]; Tables S12 and S14, read-out: hCTR pEC50 (converted)): 676 pM | EC50 ([6]; BHK cells stably expressing hCTR and CRE-luciferase, 3 h, 37 °C, 10% FBS, read-out: hCTR EC50): 672 pM
Structure (SMILES): CC[C@H](C)[C@H](NC(=O)[C@@H]1CCCN1C(=O)CNC(=O)[C@H](Cc1ccccc1)NC(=O)[C@@H]1CCCN1C(=O)[C@H](CC(N)=O)NC(=O)[C@H](CO)NC(=O)[C@H](CO)NC(=O)[C@H](Cc1c[nH]cn1)NC(=O)[C@H](CCCNC(=N)N)NC(=O)[C@H](CC(C)C)NC(=O)[C@H](Cc1ccccc1)NC(=O)[C@H](CC(=O)O)NC(=O)[C@H](C)NC(=O)[C@H](CC(C)C)NC(=O)[C@H](CCCNC(=N)N)NC(=O)[C@H](CCC(N)=O)NC(=O)[C@@H](NC(=O)[C@H](C)NC(=O)[C@@H]1CSSC[C@H](NC(=O)[C@@H](N)CCCCNC(=O)CC[C@H](NC(=O)CC[C@H](NC(=O)CCCCCCCCCCCCCCCCCCC(=O)O)C(=O)O)C(=O)O)C(=O)N[C@@H](CC(N)=O)C(=O)N[C@@H]([C@@H](C)O)C(=O)N[C@@H](C)C(=O)N[C@@H]([C@@H](C)O)C(=O)N1)[C@@H](C)O)C(=O)N[C@@H](CC(C)C)C(=O)N[C@@H](CO)C(=O)N[C@@H](CO)C(=O)N[C@H](C(=O)N[C@@H](CC(N)=O)C(=O)N[C@H](C(=O)NCC(=O)N[C@@H](CO)C(=O)N[C@@H](CC(=O)O)C(=O)N[C@H](C(=O)N[C@@H](Cc1ccc(O)cc1)C(N)=O)[C@@H](C)O)C(C)C)[C@@H](C)O [Peptide 4] (H-K([γGlu-γGlu-C20 diacid])CNTATCATQRLADFLRHSSNPFGPILSSTNVGSDTY-NH2; disulfide 2-7)
